The source of these data is BindingDB's records for doi:10.1016/j.bmcl.2003.08.082 (The University of Huddersfield, 2003).

The experiment has as its target Beta-lactamase (Enterobacter cloacae, UniProt P05364). Nature of the experiment: Inhibitor activity against Beta-lactamase, derived from the Gram negative bacteria Enterobacter cloacae at pH 7. As to conditions: read-out: kon (M-1-s-1).

Sequence of Beta-lactamase (P05364 whole entry): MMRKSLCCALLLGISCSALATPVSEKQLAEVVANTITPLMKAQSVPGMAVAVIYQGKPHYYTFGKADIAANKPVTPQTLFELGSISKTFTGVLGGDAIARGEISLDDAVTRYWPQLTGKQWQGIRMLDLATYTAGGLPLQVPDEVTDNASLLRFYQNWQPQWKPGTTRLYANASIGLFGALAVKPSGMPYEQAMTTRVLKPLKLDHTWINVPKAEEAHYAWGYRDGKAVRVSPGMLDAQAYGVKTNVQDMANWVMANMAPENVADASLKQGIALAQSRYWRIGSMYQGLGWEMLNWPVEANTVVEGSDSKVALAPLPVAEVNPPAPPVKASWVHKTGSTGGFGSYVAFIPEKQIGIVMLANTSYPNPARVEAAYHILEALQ

For the compound `CC(C)C1CN(C(=O)c2ccccc2)S1(=O)=O` (configuration not stated), the kon came out at 0.07 M⁻¹ s⁻¹.

As to `O=C(c1ccccc1)N1CCS1(=O)=O`, the kon is 163 M⁻¹ s⁻¹.

As a reminder, the kon is the second-order rate constant of association.
